Test results reported in PubChem BioAssay (NCI).
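Dose response: 5 concentrations. Exposure: 48 h. Format: 96-well plates. Endpoint: linear interpolation; highest concentration if not reached. TGI denotes the concentration required for complete inhibition of growth.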

Tests used:
Test in all cases: growth of human tumour cells (NCI), 48 h
SNB-75 CNS = system: SNB-75 CNS
OVCAR-8 ovarian = system: OVCAR-8 ovarian
UACC-257 melanoma = system: UACC-257 melanoma
OVCAR-5 ovarian = system: OVCAR-5 ovarian
RXF-631 renal = system: RXF-631 renal
HCT-15 colon = system: HCT-15 colon
OVCAR-3 ovarian = system: OVCAR-3 ovarian
DMS 273 small cell lung = system: DMS 273 small cell lung
ACHN renal = system: ACHN renal
A549 NSCLC = system: A549 NSCLC
IGROV1 ovarian = system: IGROV1 ovarian
HL-60(TB) leukemia = system: HL-60(TB) leukemia
HOP-18 NSCLC = system: HOP-18 NSCLC
A498 renal = system: A498 renal
RPMI-8226 leukemia = system: RPMI-8226 leukemia
K-562 leukemia = system: K-562 leukemia
HOP-92 NSCLC = system: HOP-92 NSCLC
HCC-2998 colon = system: HCC-2998 colon
M19-MEL melanoma = system: M19-MEL melanoma
DLD-1 colon = system: DLD-1 colon
SNB-19 CNS = system: SNB-19 CNS
SNB-78 CNS = system: SNB-78 CNS
RXF 393 renal = system: RXF 393 renal
DMS 114 small cell lung = system: DMS 114 small cell lung
SW-620 colon = system: SW-620 colon
SK-MEL-5 melanoma = system: SK-MEL-5 melanoma
NCI-H23 lung = system: NCI-H23 lung
NCI-H522 lung = system: NCI-H522 lung
LOX IMVI melanoma = system: LOX IMVI melanoma
SN12C renal = system: SN12C renal
HT29 colon = system: HT29 colon
COLO 205 colon = system: COLO 205 colon
KM20L2 colon = system: KM20L2 colon
EKVX NSCLC = system: EKVX NSCLC
SK-MEL-2 melanoma = system: SK-MEL-2 melanoma
TK-10 renal = system: TK-10 renal
786-0 renal = system: 786-0 renal
SF-268 CNS = system: SF-268 CNS
NCI-H460 lung = system: NCI-H460 lung
HOP-62 NSCLC = system: HOP-62 NSCLC
U251 CNS = system: U251 CNS
CCRF-CEM leukemia = system: CCRF-CEM leukemia
SF-539 CNS = system: SF-539 CNS
SF-295 CNS = system: SF-295 CNS
UACC-62 melanoma = system: UACC-62 melanoma
KM12 colon = system: KM12 colon
UO-31 renal = system: UO-31 renal
SK-OV-3 ovarian = system: SK-OV-3 ovarian
SK-MEL-28 melanoma = system: SK-MEL-28 melanoma
CAKI-1 renal = system: CAKI-1 renal
MOLT-4 leukemia = system: MOLT-4 leukemia
MALME-3M melanoma = system: MALME-3M melanoma
NCI-H226 lung = system: NCI-H226 lung
LXFL 529 NSCLC = system: LXFL 529 NSCLC
M14 melanoma = system: M14 melanoma
OVCAR-4 ovarian = system: OVCAR-4 ovarian
XF 498 CNS = system: XF 498 CNS
HCT-116 colon = system: HCT-116 colon

Measured: TGI

CC(=O)NNc1nc(C)c(C(=O)/C=C/c2ccc(Cl)c(Cl)c2)s1
> 100 µM: SNB-75 CNS | OVCAR-8 ovarian | UACC-257 melanoma | OVCAR-5 ovarian | RXF-631 renal | HCT-15 colon | OVCAR-3 ovarian | DMS 273 small cell lung | ACHN renal | A549 NSCLC | IGROV1 ovarian | HL-60(TB) leukemia | HOP-18 NSCLC | A498 renal | RPMI-8226 leukemia | K-562 leukemia | HOP-92 NSCLC | HCC-2998 colon | M19-MEL melanoma | DLD-1 colon | SNB-19 CNS | SNB-78 CNS | RXF 393 renal | DMS 114 small cell lung | SW-620 colon | SK-MEL-5 melanoma | NCI-H23 lung | NCI-H522 lung | LOX IMVI melanoma | SN12C renal | HT29 colon | COLO 205 colon | KM20L2 colon | EKVX NSCLC | SK-MEL-2 melanoma | TK-10 renal | 786-0 renal | SF-268 CNS | NCI-H460 lung | HOP-62 NSCLC | U251 CNS | CCRF-CEM leukemia | SF-539 CNS | SF-295 CNS | UACC-62 melanoma | KM12 colon | UO-31 renal | SK-OV-3 ovarian | SK-MEL-28 melanoma | CAKI-1 renal | MOLT-4 leukemia | MALME-3M melanoma

CCCCCCCCCCCCC(Br)C(C)=O (stereo not given)
> 100 µM: OVCAR-8 ovarian | UACC-257 melanoma | OVCAR-5 ovarian | RXF-631 renal | HCT-15 colon | OVCAR-3 ovarian | DMS 273 small cell lung | ACHN renal | A549 NSCLC | NCI-H226 lung | IGROV1 ovarian | HL-60(TB) leukemia | HOP-18 NSCLC | A498 renal | LXFL 529 NSCLC | HOP-92 NSCLC | M14 melanoma | HCC-2998 colon | M19-MEL melanoma | DLD-1 colon | SNB-19 CNS | SNB-78 CNS | OVCAR-4 ovarian | RXF 393 renal | DMS 114 small cell lung | SW-620 colon | SK-MEL-5 melanoma | NCI-H23 lung | NCI-H522 lung | LOX IMVI melanoma | SN12C renal | HT29 colon | COLO 205 colon | KM20L2 colon | XF 498 CNS | EKVX NSCLC | SK-MEL-2 melanoma | TK-10 renal | 786-0 renal | SF-268 CNS | NCI-H460 lung | HOP-62 NSCLC | U251 CNS | CCRF-CEM leukemia | HCT-116 colon | SF-539 CNS | SF-295 CNS | UACC-62 melanoma | KM12 colon | UO-31 renal | SK-OV-3 ovarian | SK-MEL-28 melanoma | MALME-3M melanoma
